Results reported in patent US5922838A, “Cyclic hexapeptide compounds” (Taisho Pharmaceutical Co., Ltd., priority 1995, dated 1999).

Tested on: colon 26 (mouse colon cancer)
Experiment: Anti-tumor effect on colon 26 (mouse colon cancer), subcutaneous transplant in CDF1 mice
Assay type: in vivo
Details: intravenously from day 3 on for 5 days, tumor volume ratio measured day 8, CDF1 male mice, T/C of not more than 42% judged effective
Procedure: Test Example [Anti-tumor effect on colon 26 (mouse colon cancer)]
A test was carried out according to the procedure disclosed in Cancer Res., 50. 2290~2295 (1990).
Colon 26 tumor tissue subcultured and transplanted on BALB/c female mice was excised from tumor-bearing mice by incision on the 11th day after the transplantation, and after removal of connective tissues it was minced with scissors. Then, 5 ml of Hank's balanced salt solution was added to 1 g of the tumor, followed by homogenization in a Luer-Lok syringe. After filtration through silicone gauze, cell number in the filtrate cell solution was counted by a hemocytometer and adjusted to 1.0 ×10^6 cells/ml. The resulting cell suspension was subcutaneously transplanted to CDF1 male mice (aged 6 weeks, Charles River, Japan Co.) at the right axillary site at a dose of 0.2 ml/mouse to provide test tumor-bearing mice with each group consisting of 8 mice. The day of cell transplantation was designated as "day 0". TI-356 was dissolved into a surfactant (a solution of HCO 60: polyethyleneglycol =2:1), followed by slow addition of physiological saline thereto to prepare test solutions of various concentrations with the ultimate concentration being about 0.5%. The test solutions were intravenously administered from "day 3" on for 5 days.
RA-VII was used as control.
Tumor propagation-inhibiting effect was determined by measuring the principal axis and the conjugate axis of tumor by a vernier caliper on the day following the completion to administer the compound (day 8) and calculating a tumor volume, a tumor volume ratio and T/C (%) according to the following formulae. T/C of not more than 42% was judged to be effective. [formula]

Row | Compound | T/C (%) (dose 1.6 mg/kg) | T/C (%) (dose 3.13 mg/kg) | T/C (%) (dose 6.25 mg/kg) | T/C (%) (dose 0.8 mg/kg)
1 | COc1ccc(C[C@H]2C(=O)N[C@@H](C)C(=O)N(C)[C@H]3Cc4ccc(cc4)Oc4cc(ccc4OC)C[C@@H](C(=O)N[C@H](C)C(=O)N[C@@H](C)C(=O)N2C)N(C)C3=O)cc1 [RA-VII] | 55.8% | 48.0% | 49.0% | 
2 | COc1ccc(C[C@H]2C(=O)N[C@@H](C)C(=O)N(C)C3Cc4ccc(cc4)Oc4cc(ccc4OCCN(C(C)C)C(C)C)CC(C(=O)N[C@H](C)C(=O)N[C@@H](C)C(=O)N2C)N(C)C3=O)cc1 (stereo partly drawn) [TI-356] | 41.5% | 34.5% |  | 42.1%
